In PubChem BioAssay AID1963971 (Molecular Pharmacology Branch, DTP, NCI, 2024):

Tested on: 953936-095-R-J2-PDC spheroids with HUVEC/MSC, viability
Assay: Anticancer human tumor 953936-095-R-J2-PDC patient-derived cervical squamous cell carcinoma cell line growth inhibition [PI3K]
Conditions: for viability, T/C: stronger effect = lower value
Excerpt: Combinatorial screen of targeted agents with the PI3K inhibitors inavolisib, alpelisib, duvelisib, and copanlisib in multi-cell type tumor spheroids
A high-throughput screen of multi-cell type tumor spheroids was designed to identify active combinations of targeted small molecules and PI3K pathway inhibitors. Complex spheroids include a stromal component modeled by human endothelial cells (HUVEC) and fibroblasts modeled by human mesenchymal stem cells (MSCs). The concentration ranges selected for each drug and investigational agent were based upon clinically achievable concentrations if the clinical Cmax of the agent was known.
Compounds. The drugs and investigational agents: inavolisib (NSC800729), alpelisib (NSC765974), duvelisib (NSC772469), copanlisib (NSC816437), ipatasertib (NSC767898), afuresertib (NSC778305), talazoparib (NSC767125), sapanisertib (NSC764658), selumetinib (NSC741078), tovorafenib (DAY101, NSC766906), vemurafenib (NSC761431), ravoxertinib (NSC781343), sotorasib (NSC818433), MRTX1133 (NSC 836407), abemaciclib (NSC 768073), palbociclib (NSC758247), venetoclax (NSC 766270), SY5609 (NSC837396), enzalutamide (NSC755605), and darolutamide (NSC825331), were obtained from the National Cancer Institute (NCI) Developmental Therapeutics Program Chemical Repository. The FDA-approved anticancer drug set is available from the NCI Developmental Therapeutics Program. […] The stock solutions were prepared in dimethyl sulfoxide (DMSO, Sigma-Aldrich, St. Louis, MO, cat. D2650) at 800-fold the tested concentration and stored at -70 degrees C prior to their use. All drugs and investigational agents were tested over a range starting from a high concentration at or near the clinical Cmax and decreasing in half-log increments. If the clinical Cmax for an agent had not been determined, the highest concentration tested was 10 microM.
Cell Culture. All cells were maintained in an incubator at 37 degrees C and 5% CO2 with 95% humidity. The PDC lines were cultured according to standard operating procedures established by the NCI PDMR (https://pdmr.cancer.gov/sops/default.htm). All PDCs were thawed and cultured in Matrigel-coated flasks prepared with a working solution of 1X Ham's F-12 nutrient mix, without supplementation (Invitrogen, Waltham, MA, cat. 11765054), 100 U/mL penicillin-streptomycin (Invitrogen, cat. 15140122), and 2.5% Matrigel (Corning Inc., Corning, NY, cat. 354248) for the first three passages. The 354836-022-R-J1-PDC, 475296-252-R-J1-PDC, and 997726-040-R-J2-PDC lines were cultured in 6A media, which includes advanced DMEM/F-12 (Thermo Fisher Scientific, cat. 12634028), 10 mM HEPES (Thermo Fisher Scientific, cat. 15630080), 1X GlutaMAX supplement (Thermo Fisher Scientific, cat. 35050061), 0.1 mg/mL primocin (InvivoGen, San Diego, CA, cat. ant-pm-2), 10% defined fetal bovine serum, heat inactivated (HyClone Laboratories Inc., Logan, UT, cat. SH30070.03HI), 50% L-WRN conditioned media (ATCC, cat. CRL-3276), 1.25 mM N-Acetyl-L-cysteine (Sigma-Aldrich, cat. A9165), 10 mM nicotinamide (Sigma-Aldrich, cat. N0636), 1X B-27 supplement (Thermo Fisher Scientific, cat. 17504044), 1X N-2 supplement (Thermo Fisher Scientific, cat. 17502048), and 10 microM Y-27632 dihydrochloride (Tocris Bioscience, Bristol, United Kingdom, cat. 1254). The 624824-186-R-J2-PDC line was cultured in 6C/Colon 1B media, which includes all 6A media components plus 50 ng/mL human EGF recombinant protein (Thermo Fisher Scientific, cat. PHG0311). […]

[1] = curve of first compound, second compound 0.0316 µM
[2] = curve of first compound, second compound 0.1 µM
[3] = curve of first compound, second compound 0.316 µM
[4] = curve of first compound, second compound 1 µM
[5] = curve of first compound, second compound 3.16 µM
[6] = curve of first compound, second compound 10 µM
[7] = second compound 0.0316 µM, first compound 0.00316 µM
[8] = second compound 0.0316 µM, first compound 0.01 µM
[9] = second compound 0.0316 µM, first compound 0.0316 µM
[10] = second compound 0.0316 µM, first compound 0.1 µM
[11] = second compound 0.1 µM, first compound 0.00316 µM
[12] = second compound 0.1 µM, first compound 0.01 µM
[13] = second compound 0.1 µM, first compound 0.0316 µM
[14] = second compound 0.1 µM, first compound 0.1 µM
[15] = second compound 0.316 µM, first compound 0.00316 µM
[16] = second compound 0.316 µM, first compound 0.01 µM
[17] = second compound 0.316 µM, first compound 0.0316 µM
[18] = second compound 0.316 µM, first compound 0.1 µM
[19] = second compound 1 µM, first compound 0.00316 µM
[20] = second compound 1 µM, first compound 0.01 µM
[21] = second compound 1 µM, first compound 0.0316 µM
[22] = second compound 1 µM, first compound 0.1 µM
[23] = second compound 3.16 µM, first compound 0.00316 µM
[24] = second compound 3.16 µM, first compound 0.01 µM
[25] = second compound 3.16 µM, first compound 0.0316 µM
[26] = second compound 3.16 µM, first compound 0.1 µM
[27] = second compound 10 µM, first compound 0.00316 µM
[28] = second compound 10 µM, first compound 0.01 µM
[29] = second compound 10 µM, first compound 0.0316 µM
[30] = second compound 10 µM, first compound 0.1 µM
[31] = second compound 0.0316 µM, first compound 0.000316 µM
[32] = second compound 0.0316 µM, first compound 0.001 µM
[33] = second compound 0.1 µM, first compound 0.000316 µM
[34] = second compound 0.1 µM, first compound 0.001 µM
[35] = second compound 0.316 µM, first compound 0.000316 µM
[36] = second compound 0.316 µM, first compound 0.001 µM
[37] = second compound 1 µM, first compound 0.000316 µM
[38] = second compound 1 µM, first compound 0.001 µM
[39] = second compound 3.16 µM, first compound 0.000316 µM
[40] = second compound 3.16 µM, first compound 0.001 µM
[41] = second compound 10 µM, first compound 0.000316 µM
[42] = second compound 10 µM, first compound 0.001 µM
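Further: spheroids exposed to compounds for seven days before read-out.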

CCN1CCN(Cc2ccc(Nc3ncc(F)c(-c4cc(F)c5nc(C)n(C(C)C)c5c4)n3)nc2)CC1 + CC(Nc1ncnc2nc[nH]c12)c1cc2cccc(Cl)c2c(=O)n1-c1ccccc1
IC50 [1]: > 1000 nM | IC50 [2]: > 1000 nM | IC50 [3]: > 1000 nM | IC50 [4]: > 1000 nM | IC50 [5]: > 1000 nM | IC50 [6]: > 1000 nM | viability, T/C [7]: 102% | viability, T/C [8]: 101% | viability, T/C [9]: 96.1% | viability, T/C [10]: 103% | viability, T/C (second compound 0.0316 µM, first compound 0.316 µM): 87.5% | viability, T/C (second compound 0.0316 µM, first compound 1 µM): 89.1% | viability, T/C [11]: 104% | viability, T/C [12]: 106% | viability, T/C [13]: 111% | viability, T/C [14]: 93% | viability, T/C (second compound 0.1 µM, first compound 0.316 µM): 86% | viability, T/C (second compound 0.1 µM, first compound 1 µM): 81.3% | viability, T/C [15]: 100% | viability, T/C [16]: 108% | viability, T/C [17]: 103% | viability, T/C [18]: 90.5% | viability, T/C (second compound 0.316 µM, first compound 0.316 µM): 83.8% | viability, T/C (second compound 0.316 µM, first compound 1 µM): 79.2% | viability, T/C [19]: 97% | viability, T/C [20]: 97.7% | viability, T/C [21]: 104% | viability, T/C [22]: 82.9% | viability, T/C (second compound 1 µM, first compound 0.316 µM): 76% | viability, T/C (second compound 1 µM, first compound 1 µM): 74.2% | viability, T/C [23]: 87.8% | viability, T/C [24]: 78.6% | viability, T/C [25]: 81.8% | viability, T/C [26]: 73.9% | viability, T/C (second compound 3.16 µM, first compound 0.316 µM): 71.1% | viability, T/C (second compound 3.16 µM, first compound 1 µM): 64% | viability, T/C [27]: 59.6% | viability, T/C [28]: 57.2% | viability, T/C [29]: 57.2% | viability, T/C [30]: 62.1% | viability, T/C (second compound 10 µM, first compound 0.316 µM): 52.8% | viability, T/C (second compound 10 µM, first compound 1 µM): 49.8%

CC(=O)c1c(C)c2cnc(Nc3ccc(N4CCNCC4)cn3)nc2n(C2CCCC2)c1=O + Cc1nc(NC(=O)N2CCCC2C(N)=O)sc1-c1ccnc(C(C)(C)C(F)(F)F)c1
IC50 [1]: > 100 nM | IC50 [2]: > 100 nM | IC50 [3]: > 100 nM | IC50 [4]: < 0.316 nM | IC50 [5]: < 0.316 nM | IC50 [6]: < 0.316 nM | viability, T/C [31]: 88.8% | viability, T/C [32]: 92.6% | viability, T/C [7]: 88.5% | viability, T/C [8]: 91% | viability, T/C [9]: 103% | viability, T/C [10]: 89.5% | viability, T/C [33]: 75.6% | viability, T/C [34]: 82.3% | viability, T/C [11]: 85.6% | viability, T/C [12]: 74.1% | viability, T/C [13]: 88% | viability, T/C [14]: 75.9% | viability, T/C [35]: 57.8% | viability, T/C [36]: 69.5% | viability, T/C [15]: 61% | viability, T/C [16]: 60.7% | viability, T/C [17]: 70.2% | viability, T/C [18]: 59.3% | viability, T/C [37]: 46.1% | viability, T/C [38]: 46.3% | viability, T/C [19]: 44.4% | viability, T/C [20]: 44.1% | viability, T/C [21]: 45.3% | viability, T/C [22]: 43.5% | viability, T/C [39]: 25.4% | viability, T/C [40]: 25.3% | viability, T/C [23]: 27.3% | viability, T/C [24]: 24.9% | viability, T/C [25]: 28.3% | viability, T/C [26]: 24.7% | viability, T/C [41]: 11.3% | viability, T/C [42]: 10.9% | viability, T/C [27]: 10.2% | viability, T/C [28]: 10.2% | viability, T/C [29]: 11.4% | viability, T/C [30]: 11.7%

Cc1nc(NC(=O)N2CCCC2C(N)=O)sc1-c1ccnc(C(C)(C)C(F)(F)F)c1 (stereo not drawn)
viability, T/C (compound 0.0316 µM): 90% [middle of 8 runs] | viability, T/C (compound 0.1 µM): 80.7% [middle of 8 runs] | viability, T/C (compound 0.316 µM): 64.2% [middle of 8 runs] | viability, T/C (compound 1 µM): 43.8% [middle of 8 runs] | viability, T/C (compound 3.16 µM): 28.4% [middle of 8 runs] | viability, T/C (compound 10 µM): 13.6% [middle of 8 runs] | IC50 (compound alone, run of 06/12/2023): 746 nM [middle of 8 runs]

Cn1ncnc1[C@H]1c2n[nH]c(=O)c3cc(F)cc(c23)N[C@@H]1c1ccc(F)cc1 + CC(Nc1ncnc2nc[nH]c12)c1cc2cccc(Cl)c2c(=O)n1-c1ccccc1
IC50 [1]: > 100 nM | IC50 [2]: > 100 nM | IC50 [3]: > 100 nM | IC50 [4]: > 100 nM | IC50 [5]: > 100 nM | IC50 [6]: > 100 nM | viability, T/C [31]: 110% | viability, T/C [32]: 95.1% | viability, T/C [7]: 104% | viability, T/C [8]: 98.8% | viability, T/C [9]: 91.7% | viability, T/C [10]: 96.7% | viability, T/C [33]: 100% | viability, T/C [34]: 99.3% | viability, T/C [11]: 105% | viability, T/C [12]: 99.7% | viability, T/C [13]: 101% | viability, T/C [14]: 90.1% | viability, T/C [35]: 99.5% | viability, T/C [36]: 96.8% | viability, T/C [15]: 110% | viability, T/C [16]: 92.9% | viability, T/C [17]: 101% | viability, T/C [18]: 91.9% | viability, T/C [37]: 104% | viability, T/C [38]: 90.7% | viability, T/C [19]: 90.2% | viability, T/C [20]: 84% | viability, T/C [21]: 101% | viability, T/C [22]: 86.9% | viability, T/C [39]: 87.2% | viability, T/C [40]: 78.5% | viability, T/C [23]: 79.8% | viability, T/C [24]: 81.5% | viability, T/C [25]: 78% | viability, T/C [26]: 81.3% | viability, T/C [41]: 56.8% | viability, T/C [42]: 57.8% | viability, T/C [27]: 56.9% | viability, T/C [28]: 61.9% | viability, T/C [29]: 58.7% | viability, T/C [30]: 58.9%
